Consider one compound from patent US9957273B2, “5-substituted 7- [4-(2-pyridyl)phenylmethylamino] -3-isopropylpyrazolo4,3-D]pyrimidine derivatives, use thereof as medicaments, and pharmaceutical compositions” (USTAV EXPERIMENTALNI BOTANIKY AV CR, V.V.I., priority 2015, dated 2018).

Assay [1] has as its system G361 (malignant melanoma). Description: MTT cytotoxicity assay, solid cancer cell line G361. In kind it is cell-based. The following applies: Homo sapiens, G-361, 72 h, three days. In outline:
(§1)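 Viability is scored by MTT reduction after a three-day incubation with compound (100 to 0.01 μM, triplicates) in DMEM with serum and L-glutamine. Medium is swapped for DMSO after five hours with MTT and plates are read at 620 nm, untreated wells serving as reference.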
(Tetrazolium assays rely on reduction of a dye to a coloured formazan, in cell work by metabolically active cells.)

The subject of another assay is p53. Description: Immunoblotting of apoptotic markers in HCT116 cells: p53. The note with it: 24 hours, FIG. 4. In kind it is cell-based. The procedure: Effect of novel compounds on apoptosis was confirmed by immunoblotting analysis of selected apoptotic proteins. For immunoblotting, cell were harvested, washed three times with ice-cold PBS and lysed in a buffer (50 mM Tris, pH 7.4, 250 mM NaCl, 5 mM EDTA, 50 mM NaF, 1 mM Na3VO4, 1% Nonidet P40) containing mixture of protease and phosphatase inhibitors (Sigma-Aldrich). 20 μg of total proteins were separated by SDS-polyacrylamide gel electrophoresis (SDS-PAGE) and transferred onto nitrocellulose membranes. Membranes were blocked in 5% milk and 0.1% Tween 20 in PBS and probed overnight with specific antibodies. Specific antibodies were purchased from SigmaAldrich (anti a-tubulin, clone DM1A), Santa Cruz Biotechnology (anti-Mcl-1, clone S-19; anti-PARP, clone F-2; anti-Mdm-2, clone SMP14; anti-Bcl-2), DAKO Cytomation Cell Signaling (anti-PUMA) or were a generous gift from Dr. B. Vojtesek (anti-p53, clone DO-1). All primary antibodies were diluted in PBS containing 5% powdered milk; 0.1% Tween 20. Peroxidase conjugated rabbit anti-mouse immunoglobulin or porcine anti-rabbit immunoglobulin antisera (DAKO) were used as the secondary antibodies and visualised with ECL reagents (GE-Healthcare Life Sciences).

Assay [2] concerns PANC-1 (pancreatic carcinoma). Kind of assay: MTT cytotoxicity assay, solid cancer cell line PANC-1. It counts as cell-based. The note with it: Homo sapiens, PANC-1, 72 h, three days. In outline:
as §1

The test system of assay [3] is HL60 (human promyelocytic leukaemia). Description: MTT cytotoxicity assay, leukemic cell line HL60. In kind it is cell-based. The following applies: Homo sapiens, HL-60, 72 h, three days. In outline: (§2)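 Viable-cell readout: MTT reduction to formazan, DMSO-solubilized, A620 nm, referenced to untreated cells. Seeding 2000-5000 cells/well, ≥8 h settling, compound 100–0.01 μM in triplicate, 3 days exposure; assays repeated 3 times.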

Assay [4] relates to HUVECs (human umbilical vein endothelial cells). Kind of assay: HUVEC proliferation assay (crystal violet). In kind it is cell-based. The following applies: Homo sapiens, HUVEC, 72 h, read-out: Inhibition of proliferation (EC50). In outline: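 Passage-3 HUVECs in endothelial growth medium with 10% FCS; 1.5×10^3 cells cultured 24 h, then treated with compounds or left untreated for 72 h. Proliferation read out by crystal violet staining.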

Assay [5] relates to MV4;11 (acute myelocytic leukemia). Kind of assay: MTT cytotoxicity assay, leukemic cell line MV4;11. The note with it: Homo sapiens, MV4-11, 72 h, three days. It counts as cell-based. The gist of the method:
as §2

The target in another assay is T1, CDK2/Cyclin E (Homo sapiens, UniProt P24941).
T1 construct: made in house; host or cells: Sf9 insect cells (baculovirus)
Kind of assay: CDK2/Cyclin E kinase inhibition (33P-ATP, histone H1). The following applies: 15 μM ATP. In kind it is biochemical. The gist of the method: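 Sf9-expressed, NiNTA-purified CDK2/Cyclin E with 1 mg/mL histone H1, 15 μM ATP plus [γ-33P]ATP in HEPES pH 7.5 buffer with Mg2+/Mn2+. Stopped with H3PO4; phosphorylated substrate captured on P-81 phosphocellulose and washed.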

One may read the IC50 as the concentration that gives 50% inhibition. For the compound `CC(C)c1[nH]nc2c(NCc3ccc(-c4ccccn4)cc3)nc(NCC(O)CN)nc12` (stereo not shown) [Compound 45], the IC50 was determined as 0.22 µM in assay [1]; 0.32 µM in assay [2]; 0.62 µM in assay [3]; 0.51 µM in assay [5]; 0.051 µM at CDK2/Cyclin E. The “expression of tumor suppressor protein p53 (immunoblot)” value in the assay with p53 is on record as “rapidly increased the expression”. Moreover, in assay [4], the EC50 was found to be 176 nM.
